Reference: ChEMBL document CHEMBL6109134, “Discovery of AMG 193, an MTA-Cooperative PRMT5 Inhibitor for the Treatment of MTAP-Deleted Cancers” (J Med Chem, 2025)

How the values were obtained:
CYP3A4 = CYP3A4 (Homo sapiens, UniProt P08684); assay: in vitro; settings: human liver microsomes, probe midazolam
HCT-116 [1] = assay: Antiproliferative activity against MTAP-deleted human HCT-116 cells assessed as effect on cell viability incubated for 6 days by Celltiter-Glo luminescent cell viability assay; assay type: functional, cell-based; settings: HCT-116, 144 h
[2] = Metabolic stability in human liver microsomes assessed as intrinsic clearance at 0.5 uM incubated for 40 mins in presence of NADPH; assay type: ADME, Microsome; settings: read-out: CLH
HCT-116 [3] = assay: Antiproliferative activity against human HCT-116 cells harboring wildtype MTAP assessed as effect on cell viability incubated for 6 days by Celltiter-Glo luminescent cell viability assay; assay type: functional, cell-based; settings: HCT-116, 144 h
[4] = molecular target: T1, Nuclear receptor subfamily 1 group I member 2 (Homo sapiens, UniProt O75469); assay: Activation of human PXR in human HepG2 cells co-transfected with CYP3A4-luciferase at 10 uM incubated for 1 day relative to control; settings: hepg2, 24 h
T1 sequence (O75469 whole entry): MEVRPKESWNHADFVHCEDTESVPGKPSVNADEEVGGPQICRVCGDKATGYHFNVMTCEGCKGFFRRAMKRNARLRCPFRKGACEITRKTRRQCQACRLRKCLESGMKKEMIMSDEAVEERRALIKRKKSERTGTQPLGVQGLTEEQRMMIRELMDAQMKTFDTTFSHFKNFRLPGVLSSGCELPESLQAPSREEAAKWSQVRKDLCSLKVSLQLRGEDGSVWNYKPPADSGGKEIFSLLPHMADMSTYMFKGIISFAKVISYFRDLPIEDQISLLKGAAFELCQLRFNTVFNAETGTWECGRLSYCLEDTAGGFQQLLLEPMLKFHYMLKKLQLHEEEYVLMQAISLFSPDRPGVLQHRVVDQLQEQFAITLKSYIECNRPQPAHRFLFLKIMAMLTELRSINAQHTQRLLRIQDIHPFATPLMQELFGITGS

human MDR1 (P-gp) = assay: Efflux ratio of permeability across basolateral to apical side over apical to basolateral side in MDCK cells transfected with human MDR1 in absence of elacridar; settings: dog
[5] = Metabolic stability in mouse liver microsomes assessed as intrinsic clearance at 0.5 uM incubated for 40 mins in presence of NADPH; assay type: ADME, Microsome; settings: read-out: CLH
PRMT5/MEP50 complex = PRMT5/MEP50 complex (Homo sapiens, UniProt O14744)
Description: Inhibition of PRMT5/MEP50 (unknown origin) preincubated with compound for 24 hrs in presence of SAM and MTA followed by Histone H4 (1-21)-Lys(Biotin) peptide addition and measured after 2 hrs by MTase-Glo reagent based assay

in vivo = settings: CD-1, mouse, iv, 1 mg/kg
[6] = Oral bioavailability in CD-1 mouse at 5 mg/kg administered as 1% Tween 80, 2% HPMC, 97% water/methane sulfonic acid, pH 2.0 formulation; assay type: ADME, organism-based; settings: in vivo
[7] = Half-life in CD-1 mouse at 1 mg/kg, iv; assay type: ADME, organism-based; settings: in vivo
[8] = Clearance in CD-1 mouse at 1 mg/kg, iv; settings: in vivo
[9] = Unbound clearance in CD-1 mouse at 1 mg/kg, iv; assay type: ADME, organism-based; settings: in vivo
[10] = Protein binding in mouse plasma assessed as unbound fraction by ultracentrifugation; settings: mouse plasma

CYP3A4, sequence (P08684 whole entry): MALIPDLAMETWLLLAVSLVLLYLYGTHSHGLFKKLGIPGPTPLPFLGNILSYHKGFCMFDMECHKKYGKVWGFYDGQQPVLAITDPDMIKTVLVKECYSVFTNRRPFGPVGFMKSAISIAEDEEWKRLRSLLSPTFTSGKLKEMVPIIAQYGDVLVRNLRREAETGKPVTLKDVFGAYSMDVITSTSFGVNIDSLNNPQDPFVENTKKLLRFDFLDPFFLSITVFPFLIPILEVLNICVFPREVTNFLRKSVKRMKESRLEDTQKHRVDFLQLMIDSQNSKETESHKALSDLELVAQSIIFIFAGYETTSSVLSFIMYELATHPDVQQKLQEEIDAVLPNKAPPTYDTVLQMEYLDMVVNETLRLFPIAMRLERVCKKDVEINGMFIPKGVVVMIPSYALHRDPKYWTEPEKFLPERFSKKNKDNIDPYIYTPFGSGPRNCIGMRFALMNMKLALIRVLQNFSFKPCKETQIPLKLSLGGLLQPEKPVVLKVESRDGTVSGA
PRMT5/MEP50 complex, sequence (O14744 whole entry): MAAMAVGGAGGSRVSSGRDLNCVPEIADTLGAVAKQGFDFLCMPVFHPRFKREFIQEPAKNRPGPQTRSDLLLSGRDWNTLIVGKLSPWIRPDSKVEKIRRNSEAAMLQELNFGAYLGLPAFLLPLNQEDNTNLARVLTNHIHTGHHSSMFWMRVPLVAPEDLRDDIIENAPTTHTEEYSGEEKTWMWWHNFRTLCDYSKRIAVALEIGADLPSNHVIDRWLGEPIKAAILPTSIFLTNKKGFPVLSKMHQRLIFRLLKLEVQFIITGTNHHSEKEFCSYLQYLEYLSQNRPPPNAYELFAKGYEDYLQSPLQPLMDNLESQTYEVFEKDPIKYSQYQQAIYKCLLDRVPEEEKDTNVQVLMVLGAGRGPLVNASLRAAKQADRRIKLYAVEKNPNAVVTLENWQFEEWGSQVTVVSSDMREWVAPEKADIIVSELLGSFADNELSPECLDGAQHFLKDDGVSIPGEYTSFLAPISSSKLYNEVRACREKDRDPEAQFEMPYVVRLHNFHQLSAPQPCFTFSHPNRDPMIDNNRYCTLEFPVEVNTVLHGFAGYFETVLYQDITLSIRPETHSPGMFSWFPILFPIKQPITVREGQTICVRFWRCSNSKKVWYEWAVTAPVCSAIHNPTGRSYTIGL
PRMT5/MEP50 complex, sequence (Q9BQA1 whole entry, further chain): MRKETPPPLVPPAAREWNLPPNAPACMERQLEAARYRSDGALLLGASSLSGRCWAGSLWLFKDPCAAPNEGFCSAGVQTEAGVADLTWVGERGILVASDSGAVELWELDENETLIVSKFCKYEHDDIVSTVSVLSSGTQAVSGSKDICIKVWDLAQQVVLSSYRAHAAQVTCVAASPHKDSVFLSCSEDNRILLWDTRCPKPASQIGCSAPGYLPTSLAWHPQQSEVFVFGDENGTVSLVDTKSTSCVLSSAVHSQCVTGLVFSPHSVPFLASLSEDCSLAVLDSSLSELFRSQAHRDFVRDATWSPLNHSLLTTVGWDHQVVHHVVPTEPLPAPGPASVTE

inhibition at 30 min, 10 µM (CYP3A4) [%]	IC50 (HCT-116 [1]) [µM]	microsomal CLint at 0.5 µM [2] [µL/min/mg]	IC50 (HCT-116 [3]) [µM]	Activity [4] [%]	efflux ratio (human MDR1 (P-gp))	microsomal CLint at 0.5 µM [5] [µL/min/mg]	Ki (PRMT5/MEP50 complex) [µM]	Vd (in vivo) [L/kg]	bioavailability [6] [%]	half-life [7] [h]	clearance [8] [L/h/kg]	CL free [9] [L/h/kg]	fraction unbound [10]	Compound
< 20	4.6	49	> 50	< 20	7	64	0.0011	–	–	–	–	–	–	C[C@@H]1OCc2c1c(N)nc1cnc(C(=O)N3CCOC[C@@H]3c3ccc(C(F)(F)F)cc3)cc21
≤ 10	0.01	262	0.026	50	31	624	< 0.0001	–	–	–	–	–	–	C[C@H](c1ncccn1)N(Cc1ccc(C(F)(F)F)cn1)C(=O)c1cc2c3c(c(N)nc2cc1F)COC3
< 20	4.44	17	> 10	< 20	69	26	0.0104	–	–	–	–	–	–	Nc1nc2ncc(C(=O)N3CCOCC3c3ccc(C(F)(F)F)cc3)cc2c2c1COC2 (stereo unspecified)
31	0.404	14	7.95	11	29	46	0.0001	–	–	–	–	–	–	Cc1cc2cc(C(=O)N(Cc3ccc(C(F)(F)F)cn3)[C@H](C)c3ncccn3)ncc2nc1N
< 20	0.007	43	0.264	< 20	5	178	< 0.0001	3	51	2.6	1.1	14	0.08	C[C@@H]1COC[C@H](c2ccc(C(F)(F)F)cc2)N1C(=O)c1cc2c3c(c(N)nc2cn1)COC3
–	0.074	–	0.068	–	–	–	–	–	–	–	–	–	–	CC(=O)N1CCC(Nc2cc(C(=O)NC[C@H](O)CN3CCc4ccccc4C3)ncn2)CC1 [PEMRAMETOSTAT]
4	0.014	129	0.078	13	63	278	< 0.0001	1.4	8	0.9	2.3	10	0.23	C[C@H](c1ncccn1)N(Cc1ccc(C(F)(F)F)cn1)C(=O)c1ccc2nc(N)c3c(c2c1)COC3
4	0.202	67	1.86	9	61	154	0.0001	–	–	–	–	–	–	C[C@H](c1ncccn1)N(Cc1ccc(C(F)(F)F)cn1)C(=O)c1cc2c3c(c(N)nc2cn1)COC3
< 20	0.395	14	9.43	< 20	33	16	< 0.0001	1.2	78	2.1	0.4	2.2	0.18	Nc1nc2ccc(C(=O)N3CCOC[C@@H]3c3ccc(C(F)(F)F)cn3)cc2c2c1COC2
21	0.482	< 14	0.743	17	15	62	0.0006	–	–	–	–	–	–	C[C@H](c1ncccn1)N(Cc1ccc(C(F)(F)F)cn1)C(=O)c1ccc2nc(N)ccc2c1
70	0.273	14	3.49	6	63	14	0.0001	–	–	–	–	–	–	Cc1cc2cc(C(=O)N(Cc3ccc(C(F)(F)F)cn3)[C@H](C)c3ncccn3)cnc2nc1N
< 20	0.112	74	2.09	< 20	4	102	< 0.0001	–	–	–	–	–	–	Nc1nc2cnc(C(=O)N3CCCC[C@@H]3c3ccc(C(F)(F)F)cc3)cc2c2c1COC2
8	0.014	274	0.129	73	85	563	< 0.0001	–	–	–	–	–	–	C[C@H](c1ncccn1)N(Cc1ccc(C(F)(F)F)cn1)C(=O)c1ccc2nc(N)c3c(c2c1)CCC3
< 20	1.09	50	16.1	< 20	5	87	0.0004	–	–	–	–	–	–	Nc1nc2cnc(C(=O)N3CCC(F)(F)C[C@@H]3c3ccc(C(F)(F)F)cc3)cc2c2c1COC2
< 20	0.533	14	8.53	< 20	36	17	0.0002	1	46	2.5	0.4	1.5	0.27	Nc1nc2ccc(C(=O)N3CCOC[C@@H]3c3ccc(C(F)(F)F)nc3)cc2c2c1COC2
< 20	15.5	61	> 50	< 20	–	52	0.182	–	–	–	–	–	–	Nc1nc2ccc(C(=O)N3CCOC[C@H]3c3ccc(C(F)(F)F)cn3)cc2c2c1COC2
< 20	0.064	26	2.46	80	7	51	< 0.0001	1.8	82	1.6	0.8	8.8	0.09	C[C@H]1OCc2c1c(N)nc1cnc(C(=O)N3CCOC[C@@H]3c3ccc(C(F)(F)F)cc3)cc21
< 1	0.083	22	0.409	1	–	17	< 0.0001	–	–	–	–	–	–	C[C@H](c1ncccn1)N(Cc1ccc(C(F)(F)F)cn1)C(=O)c1cnc2nc(N)c3c(c2c1)COC3
< 20	> 50	57	> 50	< 20	–	72	0.184	–	–	–	–	–	–	Nc1nc2ccc(C(=O)N3CCCC3c3ccc(C(F)(F)F)cn3)cc2c2c1COC2 (stereo unspecified)
25	0.344	< 14	5.11	46	9	105	0.0002	–	–	–	–	–	–	C[C@H](c1ncccn1)N(Cc1ccc(C(F)(F)F)cn1)C(=O)c1ccc2nc(N)c(Cl)cc2c1
< 20	0.233	50	4.81	< 20	13	78	< 0.0001	1.6	61	2.7	0.4	8	0.05	Nc1nc2ccc(C(=O)N3CCOC[C@@H]3c3ccc(C(F)(F)F)cc3)cc2c2c1COC2
< 20	0.809	37	14.3	< 20	–	45	0.0001	–	–	–	–	–	–	Nc1nc2ccc(C(=O)N3CCOCC3c3ccc(C(F)(F)F)cn3)cc2c2c1COC2 (racemic)
52	0.431	32	6.09	22	–	148	–	–	–	–	–	–	–	Cc1cc2cc(C(=O)N(Cc3ccc(C(F)(F)F)cn3)CC(C)C)ccc2nc1N
< 20	0.399	42	8.27	< 20	8	121	< 0.0001	–	–	–	–	–	–	Nc1nc2ccc(C(=O)N3CCOC[C@@H]3c3ccc(Cl)cc3)cc2c2c1COC2
